Here are results for six compounds from patent US20110112187A1, “Use Of Tranilast And Derivatives Thereof For The Therapy Of Neurological Conditions” (priority 2007, published 2011).

In experiment [1] the test system is neural stem cells. In words: In vitro differentiation assay on adult neuronal stem cells (beta-III-tubulin promoter dual luciferase reporter). The settings on record: 48 hrs; concentration ranges within 0.01 to 100 μM; versus sham treated cells. Format: cell-based, rat. An excerpt:
The neuroregenerative effect of the compounds according to the present invention can be assayed in vitro by measuring their stimulation of the differentiation of neuronal stem cells. Therefore, adult neuronal stem cells have to be isolated and subsequently cultivated in a suitable culture medium. After several passages in vitro the stem cells have to be co-transfected with a DNA construct coding for two discriminable reporter proteins one of them under the control of a constitutive promoter and the other under the control of a beta-III-tubulin promoter. The beta-III-tubulin promoter is induced during the process of neuronal stem cell differentiation; therefore the reporter protein under the control of this promoter serves as a marker for the stem cell differentiation in such an in vitro dual reporter assay (Schneider et al., J Clin Investigation 2005; 115:2083-2098). The person skilled in the art knows several suitable constitutive promoters such as the SV40-promoter, the TK-promoter, or the CMV-promoter. As discriminable reporter proteins for such a dual reporter assay one can use discriminable luciferases such as firefly luciferase and Renilla luciferase. The transfected cells have to be incubated with the test compound and with positive and negative controls for normalization and background correction. As a positive control compound one can use retinoic acid (Guan et al., Cell Tissue Res. 2001; 305:171-176; Jacobs et al., Proc. Natl. Acad. Sci. USA 2006; 103:3902-3907), a suitable negative control is the sham treatment of the cells. The neroregenerative activity of the test compound is determined as the ratio of the signal of the beta-III-tubulin promoter controlled reporter versus the signal of the constitutively expressed reporter and is expressed as fold from the control. This assay is suitable to assess the neuroregenerative activity of tranilast and derivatives thereof, but also can be used to screen for other potential neuroregenerative compounds. Preferably, such a screening can be used to test compounds which are already known to be suitable as a medicament in terms of its toxicology, bioavailability, solubility, stability etc.
Neural stem cells were isolated from the subventricular zone of 4 week-old male Wistar rats as described (Maurer et al, Proteome Sci. 2003; 1:4). Cells were cultivated in Neurobasal medium (Invitrogen) supplemented with B27 (Invitrogen), 2 mM L-glutamine, 100 units/ml penicillin, 100 units/ml streptomycin, 20 ng/ml […] growth factor (EGF), 20 ng/ml fibroblast growth factor-2 (FGF-2), and […] heparin. Once a week the neural stem cells were passaged and experiments were performed after 4 weeks in vitro. For DNA transfection, the cells were dissociated and plated on poly-L-ornithin/laminin-coated 96-well plates at a density of 50.000 cells/well. Cotransfection with the pGL3-p-βIII-tubulin vector (100 ng/well) and the pRL SV40 vector (100 ng/well) was carried out according to the FuGene6 Transfection protocol (Roche). The pRL SV40 vector (Promega) served as an internal control vector.
To amplify the class III β-tubulin gene promoter (fragment −450-+54), rat genomic DNA was used as a template for PCR (Dennis et al., Gene 2002; 294:269-277). The amplified fragment was inserted into the Mlu I/Xho I site of the pGL3-Basic firefly luciferase reporter vector (Promega) to generate the pGL3-p-βIII-tubulin experimental vector.
After overnight incubation, the plate was decanted and given in 8-fold replicates fresh medium containing tranilast (Sigma) or vehicle. As a positive control for in vitro differentiation, stem cells were treated by adding 1 μM retinoic acid (Sigma) to the medium missing the mitogens.
After 48 hrs, the cells were harvested to prepare the cellular extracts for luciferase assay following the directions of the manufacturer (Promega). […]

Experiment [2] has as its system SH-SY5Y neuronal cells. In words: In vitro anti-apoptosis assay (Caspase-Glo 3/7, staurosporine induced apoptosis). The class given is cell-based, human. Here is the method:
Neuroprotection is attainable via the inhibition of apoptosis of affected neurons. The anti-apoptotic effect of tranilast and its derivatives can be assayed in vitro by measuring the caspase-3 and caspase-7 activities. These members of the cysteine aspartic acid-specific protease (caspase) family play key effector roles in apoptosis in mammalian cells. Cortical neurons have to be isolated and subsequently cultivated in a suitable culture medium. The cells have to be incubated with the test compound in the presence of an apoptotic substance such as staurosporine. Parallel approaches with staurosporine alone and sham treatment of the cells serve as […] controls. The assay allows evaluating whether the test compound can compensate either completely or partially for the apoptotic effect of staurosporine. This assay is suitable to assess the neuroprotective activity of tranilast and derivatives thereof, but also can be used to screen for other potential neuroprotective compounds. Preferably, such a screening can be used to test compounds which are already known to be suitable as a medicament in terms of its toxicology, bioavailability, solubility, stability etc.
The neuroprotective effect of compounds can be assayed in vitro by measuring caspase-3 and caspase-7 activities. These members of the cysteine aspartic acid-specific protease (caspase) family play a key effector role in apoptosis in mammalian cells.
The human neuroblastoma cell-line SH-SY5Y (American Type Culture Collection) maintained in DMEM with high glucose supplemented with 20% FBS was used for the apoptosis assay. Alternatively one can analyse the apoptosis of primary cortical neurons which can be isolated from E18 rats and subsequently cultivated in suitable culture medium. 2.5×10^4 SH-SY5Y cells were seeded in 96-well plates and stimulated 24 h later with tranilast or vehicle in the presence of the apoptosis inducing compound staurosporine (0.5 μM, Calbiochem). After 5 h incubation at 37° C., caspase-Glo 3/7 reagent (Promega) containing luciferase and luminogenic substrate was added to the cells. The cleavage of the substrate by caspase-3 and caspase-7 was detected 30 min later using a luminometer (Berthold Technologies, Mithras LB 940). The Luminescence which is proportional to the amount of caspase activity serves as a measure for the apoptosis of the treated neurons. Tranilast was tested in a range from 0.8 μM to 100 μM final concentration.
Analogously to Example 3, various derivatives of tranilast (N-(3′,4′-methylenedioxycinnamoyl)-anthranilic acid (FIG. 2a (ChemBridge Corporation)), 2-(3′,4′-dimethoxycinnamoylamino)-toluene (FIG. 2b (ChemBridge Corporation)), N-cinnamoyl-anthranilic acid (FIG. 2c (ChemBridge Corporation)), and 2-(3′,4′-dimethoxycinnamoylamino)-anisole (FIG. 2d (Ambinter SARL))) have been analysed for their anti-apoptotic activity. The SH-SY5Y cells have been incubated with these derivatives (1 μM) either alone or in the presence of staurosporine (0.5 μM). Incubation with staurosporine (0.5 μM) alone served as positive control and incubation with vehicle served as negative control. In the case of 3-(4′-chlorocinnamoylamino)-anisole (FIG. 2e (Sigma)) the SH-SY5Y cells have been incubated with this derivative (1 μM) either alone or in the presence of staurosporine […]. Accordingly, incubation with staurosporine […] alone served as positive control and incubation with vehicle served as negative control. The degree of apoptosis relative to the staurosporine control is shown in FIG. 4 a (vehicle (sham): 9% staurosporine (SP): 100%; tranilast: 8%; tranilast plus staurosporine: 75%; derivative A: 3%; derivative A plus staurosporine: 27%; derivative B: 7%; derivative B plus staurosporine: 79%; derivative C: 2%; derivative C plus staurosporine: 20%; derivative D: 7%; derivative D plus staurosporine: 80%) and FIG. 4 b (vehicle (sham): 13%; staurosporine: 100%; derivative E: 6%; derivative E plus staurosporine: 25%).

Where [3] appears, read: compound 1 μM alone, FIG. 4a (control staurosporine 0.5 μM).
The mark [4] stands for this setting: compound 1 μM plus staurosporine 0.5 μM, FIG. 4a.

Take `O=C(C=Cc1ccc2c(c1)OCO2)Nc1ccccc1C(=O)O` [derivative A, N-(3′,4′-methylenedioxycinnamoyl)-anthranilic acid]: the “differentiation of neural stem cells to neurons (relative induction of the class III β-tubulin gene promoter controlled luciferase signal)” value in experiment [1] was “significantly stimulates the differentiation of neural stem cells to neurons in a dose dependent manner”. For the same compound, the entries for the “degree of apoptosis relative to the staurosporine control” value in experiment [2] (setting [3]) and in experiment [2] (setting [4]) were 3% and 27%, respectively.
For `COc1ccc(C=CC(=O)Nc2ccccc2C)cc1OC` [derivative B, 2-(3′,4′-dimethoxycinnamoylamino)-toluene], the “differentiation of neural stem cells to neurons (relative induction of the class III β-tubulin gene promoter controlled luciferase signal)” value in experiment [1] is given as “significantly stimulates the differentiation of neural stem cells to neurons in a dose dependent manner”. Moreover, the “degree of apoptosis relative to the staurosporine control” value in experiment [2] (setting [3]) was 7%; in experiment [2] (setting [4]), 79%.
Take `O=C(C=Cc1ccccc1)Nc1ccccc1C(=O)O` [derivative C, N-cinnamoyl-anthranilic acid]: the “differentiation of neural stem cells to neurons (relative induction of the class III β-tubulin gene promoter controlled luciferase signal)” value in experiment [1] is “significantly stimulates the differentiation of neural stem cells to neurons in a dose dependent manner”. The “degree of apoptosis relative to the staurosporine control” value was found to be 2% in experiment [2] (setting [3]) and 20% in experiment [2] (setting [4]).
The corresponding values for `COc1ccccc1NC(=O)C=Cc1ccc(OC)c(OC)c1` [derivative D, 2-(3′,4′-dimethoxycinnamoylamino)-anisole] are “significantly stimulates the differentiation of neural stem cells to neurons in a dose dependent manner”, 7% and 80%.
Regarding `COc1cccc(NC(=O)C=Cc2ccc(Cl)cc2)c1` [derivative E, 3-(4′-chlorocinnamoylamino)-anisole], the “differentiation of neural stem cells to neurons (relative induction of the class III β-tubulin gene promoter controlled luciferase signal)” value in experiment [1] is “significantly stimulates the differentiation of neural stem cells to neurons in a dose dependent manner”. Further, the “anti-apoptotic effect: reduction of the staurosporine induced apoptosis” value in experiment [2] (co-incubation with staurosporine) is reported as “significant reduction of the staurosporine induced apoptosis”. The “degree of apoptosis relative to the staurosporine control” value in experiment [2] (compound 1 μM alone, FIG. 4b (control staurosporine 0.1 μM)) was determined as 6%; in experiment [2] (compound 1 μM plus staurosporine (1 μM printed, 0.1 μM elsewhere in the source), FIG. 4b), 25%.
Turning to `CN[C@@H]1C[C@H]2O[C@@](C)([C@@H]1OC)n1c3ccccc3c3c4c(c5c6ccccc6n2c5c31)C(=O)NC4` [staurosporine], the “degree of apoptosis relative to the staurosporine control” value in experiment [2] (staurosporine 0.1 μM alone (positive control, reference), FIG. 4b) amounted to 100%. Further, the “apoptosis (caspase-3/7 luminescence) relative to staurosporine” value in experiment [2] (staurosporine 0.5 μM alone (positive control, reference)) turned out to be 100%.
